Laboratory results as given in the NIST ThermoML archive (doi:10.1016/j.jct.2013.12.025).

Assay: xn = mol fraction of the nth substance listed
Details: 101 kPa, Liquid, Vibrating tube method

C=C[Si](C)(C)O[Si](C)(C)C=C [1,3-diethenyl-1,1,3,3-tetramethyldisiloxane] + CCc1ccccc1
mass density [kg/m3]
Details	283.15 K	288.15 K	293.15 K	298.15 K	303.15 K
x1 = 0.0501	871.7	867.28	862.84	858.47	854.01
x1 = 0.1001	867.93	863.46	858.98	854.58	850.08
x1 = 0.1499	864.35	859.85	855.33	850.89	846.35
x1 = 0.2001	860.93	856.41	851.85	847.37	842.8
x1 = 0.25	857.68	853.12	848.52	844.02	839.42
x1 = 0.3	854.59	850	845.38	840.85	836.21
x1 = 0.3499	851.64	847.02	842.37	837.8	833.13
x1 = 0.4	848.82	844.17	839.49	834.91	830.22
x1 = 0.4501	846.13	841.46	836.76	832.14	827.42
x1 = 0.5	843.56	838.86	834.13	829.5	824.76
x1 = 0.5503	841.09	836.39	831.62	826.96	822.2
x1 = 0.6	838.73	834.01	829.22	824.53	819.75
x1 = 0.6501	836.45	831.7	826.89	822.19	817.38
x1 = 0.6999	834.3	829.53	824.71	819.97	815.14
x1 = 0.7502	832.18	827.39	822.55	817.79	812.94
x1 = 0.8001	830.16	825.33	820.48	815.7	810.84
x1 = 0.85	828.22	823.42	818.54	813.71	808.83
x1 = 0.8999	826.37	821.53	816.65	811.81	806.91
x1 = 0.9498	824.65	819.79	814.89	810.02	805.11
x1 = 1	822.79	817.88	812.97	808.11	803.18

C=C[Si](C)(C)O[Si](C)(C)C=C [1,3-diethenyl-1,1,3,3-tetramethyldisiloxane] + COc1ccccc1
mass density [kg/m3]
Details	283.15 K	288.15 K	293.15 K	298.15 K	303.15 K
x1 = 0.0501	987.07	982.37	977.74	973.02	968.3
x1 = 0.1	972.12	967.42	962.75	958.01	953.27
x1 = 0.15	958.3	953.58	948.89	944.14	939.38
x1 = 0.2004	945.4	940.66	935.96	931.19	926.42
x1 = 0.2499	933.62	928.87	924.15	919.36	914.57
x1 = 0.3	922.54	917.77	913.04	908.24	903.45
x1 = 0.35	912.24	907.47	902.73	897.91	893.1
x1 = 0.3997	902.67	897.88	893.12	888.29	883.45
x1 = 0.4499	893.63	888.81	884.04	879.2	874.35
x1 = 0.5001	885.14	880.31	875.53	870.68	865.82
x1 = 0.5499	877.24	872.4	867.62	862.75	857.88
x1 = 0.6	869.73	864.89	860.09	855.21	850.33
x1 = 0.6499	862.68	857.84	853.04	848.15	843.25
x1 = 0.6999	856.02	851.16	846.35	841.46	836.55
x1 = 0.7499	849.72	844.85	840.03	835.13	830.23
x1 = 0.8	843.72	838.85	834.02	829.11	824.19
x1 = 0.8499	838.07	833.19	828.35	823.44	818.52
x1 = 0.8998	832.69	827.81	822.98	818.06	813.14
x1 = 0.9499	827.56	822.67	817.83	812.91	808
x1 = 1	822.67	817.77	812.92	808	803.07

C=C[Si](C)(C)O[Si](C)(C)C=C [1,3-diethenyl-1,1,3,3-tetramethyldisiloxane] + Clc1ccccc1
mass density [kg/m3]
Details	283.15 K	288.15 K	293.15 K	298.15 K	303.15 K
x1 = 0.05	1088.46	1083.08	1077.71	1072.36	1066.76
x1 = 0.0998	1062.49	1057.12	1051.77	1046.38	1040.76
x1 = 0.15	1038.61	1033.26	1027.97	1022.56	1017.01
x1 = 0.1996	1017.1	1011.78	1006.49	1001.12	995.49
x1 = 0.25	997.1	991.8	986.55	981.23	975.62
x1 = 0.2999	978.91	973.63	968.41	963.12	957.62
x1 = 0.35	962.04	956.8	951.57	946.3	940.79
x1 = 0.3999	946.48	941.25	936.1	930.87	925.47
x1 = 0.4496	932.12	926.93	921.78	916.57	911.17
x1 = 0.4999	918.61	913.45	908.32	903.14	897.77
x1 = 0.5499	906.09	900.94	895.84	890.68	885.33
x1 = 0.6	894.37	889.27	884.19	879.04	873.73
x1 = 0.6469	884.06	878.98	873.94	868.82	863.55
x1 = 0.6998	873.18	868.11	863.11	858.02	852.81
x1 = 0.7499	863.47	858.44	853.45	848.41	843.25
x1 = 0.7997	854.39	849.39	844.44	839.42	834.3
x1 = 0.8499	845.78	840.8	835.87	830.88	825.82
x1 = 0.8996	837.7	832.75	827.85	822.88	817.86
x1 = 0.9497	830	825.08	820.22	815.27	810.3
x1 = 1	822.68	817.77	812.94	808.01	803.06

C=C[Si](C)(C)O[Si](C)(C)C=C [1,3-diethenyl-1,1,3,3-tetramethyldisiloxane] + Fc1ccccc1
mass density [kg/m3]
Details	283.15 K	288.15 K	293.15 K	298.15 K	303.15 K
x1 = 0.05	1013.6	1007.66	1001.73	995.86	989.74
x1 = 0.1	992.96	987.08	981.21	975.37	969.31
x1 = 0.15	974.59	968.74	962.94	957.17	951.1
x1 = 0.1993	958.3	952.51	946.77	941.03	934.98
x1 = 0.25	943.25	937.46	931.8	926.13	920.12
x1 = 0.2999	929.85	924.19	918.57	913	907.17
x1 = 0.35	917.58	911.93	906.37	900.84	895
x1 = 0.4	906.43	900.85	895.33	889.86	884.09
x1 = 0.45	896.19	890.66	885.22	879.75	874.12
x1 = 0.5	886.76	881.29	875.91	870.51	864.97
x1 = 0.5501	878.08	872.69	867.38	862.04	856.56
x1 = 0.6	870.07	864.73	859.45	854.19	848.77
x1 = 0.6501	862.6	857.33	852.11	846.89	841.53
x1 = 0.7	855.69	850.46	845.29	840.15	834.87
x1 = 0.7501	849.23	844.06	838.93	833.84	828.63
x1 = 0.8	843.23	838.1	833.02	827.99	822.84
x1 = 0.85	837.56	832.51	827.46	822.49	817.39
x1 = 0.8998	832.28	827.28	822.3	817.36	812.32
x1 = 0.95	827.28	822.33	817.38	812.49	807.52
x1 = 1	822.56	817.66	812.74	807.9	802.97
